# What was measured:
# [1] = biological target: T1, lactic acid dehydrogenase (LDH) (Oryctolagus cuniculus, UniProt P13491); test: LDH kinetics and competitive inhibition by 4-nitroaniline (simultaneous GGT/LDH assay); format: biochemical, rabbit
# T1 construct: purchased Shanghai Shangon NB0642
# [2] = biological target: T2, calf intestinal alkaline phosphatase (CIAP) (Bos taurus, UniProt P19111)
# [3] = test system: γ-glutamyltransferase (GGT); conditions: preset for data processing; cited from earlier work
# [4] = Specific activity of penicillin G-labeled β-D-galactosidase after labeling; format: biochemical; conditions: 50 mmol/L Tris-HCl pH 7.5
# Experimental: b) mixing 50 ul solution of the activated penicillin G with 0.50 ml of 0.44 mg β-D-galactosidase dissolved in the sodium phosphate buffer at pH 7.4, keeping the mixture at 4° C. for reaction for 120 min; the resulting mixture of the labeled β-D-galactosidase is passed through Sephadex G25 column (15 cm height and 10 mm inner diameter with a packed volume of 10 ml, equilibrated with 50 mmol/L Tris-HCl at pH 7.5) and the column is eluted with the same Tris-HCl buffer to monitor the absorbance at 280 nm; the first peak of the elution is the labeled β-D-galactosidase, with a total of 0.22 mg protein in 2.0 ml elution solution;
# c) determining the specific activity after labeling: in 50 mmol/L Tris-HCl at pH 7.5, the specific activity of the labeled β-D-galactosidase is about 30 μmol·(L·min·mg)^−1 on 4-nitrophenyl-β-D-galactoside, indicating the reservation of nearly 100% activity; meanwhile, the specific activity on 4-nitro-1-napthyl-β-D-galactoside in the same buffer, its specific activity is about 100 (L·min·mg)^−1, but just about 70% of that before modification;
# [5] = biological target: T2, calf intestinal alkaline phosphatase (CIAP); parameters: purchased Sigma P0114; conditions: Blake et al 1982 method; cited from earlier work
# T2 sequence (P19111 20-506): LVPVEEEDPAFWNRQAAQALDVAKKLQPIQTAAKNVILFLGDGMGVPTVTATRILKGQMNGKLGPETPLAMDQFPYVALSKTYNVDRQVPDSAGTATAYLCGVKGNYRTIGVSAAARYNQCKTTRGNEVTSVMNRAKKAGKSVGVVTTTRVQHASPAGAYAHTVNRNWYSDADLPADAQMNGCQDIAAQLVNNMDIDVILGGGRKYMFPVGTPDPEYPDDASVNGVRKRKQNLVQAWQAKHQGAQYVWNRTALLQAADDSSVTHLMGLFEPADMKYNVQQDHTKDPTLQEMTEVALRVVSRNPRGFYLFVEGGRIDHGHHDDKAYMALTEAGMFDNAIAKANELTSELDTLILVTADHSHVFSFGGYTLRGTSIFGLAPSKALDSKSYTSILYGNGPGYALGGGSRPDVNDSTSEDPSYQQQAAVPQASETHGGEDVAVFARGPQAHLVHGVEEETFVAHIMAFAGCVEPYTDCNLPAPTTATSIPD
compound,measurement,setting,value
Nc1ccc([N+](=O)[O-])cc1 [4-nitroaniline],Ki,[1],24 µM
"O=[N+]([O-])c1ccc(OP(=O)(O)O)c2ccccc12 [4NNPP, 4-nitronaphthylphosphate]",specific activity of CIAP relative to that on 4-nitrophenylphosphate,[2],about 40%
same,Michaelis constant of CIAP,[2]; 4NNPP as chromogenic substrate,about 10 μmol/L
"NC(=O)C1=CN([C@@H]2O[C@H](COP(=O)(O)OP(=O)(O)OC[C@H]3O[C@@H](n4cnc5c(N)ncnc54)[C@H](O)[C@@H]3O)[C@@H](O)[C@H]2O)C=CC1 [NADH, reduced form of nicotine adenine nucleotide]",Michaelis constant of LDH for NADH,"[1]; pyruvate 3.0 mmol/L, pH 7.0",0.040 mmol/L
N[C@@H](CCC(=O)Nc1ccc([N+](=O)[O-])cc1)C(=O)O [γ-glutamyl-(4-nitro)-aniline],Michaelis constant of GGT for substrate (preset),[3],1.00 mmol/L
labeled β-D-galactosidase: β-D-galactosidase (Sigma G4155) modified with activated penicillin G,reservation of activity after labeling (4-nitrophenyl-β-D-galactoside),[4],about 100%
same,specific activity on 4-nitro-1-napthyl-β-D-galactoside,[4],about 100 (L·min·mg)^−1
same,specific activity on 4-nitro-1-napthyl-β-D-galactoside relative to that before modification,[4],about 70%
same,specific activity on 4-nitrophenyl-β-D-galactoside,[4],about 30 μmol·(L·min·mg)^−1
phenolphthalein monophosphate,specific activity of CIAP relative to that on p-nitrophenylphosphate,[5],about 7%

# Source: patent publication US9611502B2, “Method for simultaneously measuring activity of various enzymes by using multi-wavelength absorption single channel” (Chongqing Medical University, priority 2012, dated 2017)
